From PMC6465099 (Clinical Pharmacology and Therapeutics, 2018)

What was measured:
MATE1 = molecular target: T1, MATE1 (Homo sapiens, UniProt Q96FL8); experiment: Inhibition of MATE1-mediated; format: cell-based; conditions: sum of unbound Cmax/IC50 of abemaciclib, M2 and M20
T1 sequence (Q96FL8 1-570): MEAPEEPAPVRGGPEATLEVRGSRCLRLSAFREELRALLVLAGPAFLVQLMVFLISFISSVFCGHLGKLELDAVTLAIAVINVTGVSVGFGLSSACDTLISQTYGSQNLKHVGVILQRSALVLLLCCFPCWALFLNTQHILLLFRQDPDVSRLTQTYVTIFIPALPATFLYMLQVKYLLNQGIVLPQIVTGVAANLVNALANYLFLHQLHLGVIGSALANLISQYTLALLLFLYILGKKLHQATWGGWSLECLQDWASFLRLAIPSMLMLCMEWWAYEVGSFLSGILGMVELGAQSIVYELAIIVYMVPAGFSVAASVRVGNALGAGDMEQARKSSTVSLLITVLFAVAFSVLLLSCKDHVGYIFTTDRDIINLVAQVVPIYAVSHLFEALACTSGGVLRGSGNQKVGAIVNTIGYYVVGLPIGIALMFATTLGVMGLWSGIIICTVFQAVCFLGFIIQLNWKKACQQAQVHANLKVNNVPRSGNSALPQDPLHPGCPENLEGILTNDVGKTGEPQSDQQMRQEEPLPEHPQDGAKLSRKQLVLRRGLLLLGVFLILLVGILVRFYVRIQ

[1] = patients with cancer and healthy subjects; cited from earlier work
[2] = Clinical crossover study: iohexol clearance; format: in vivo, human; conditions: for clearance: human, plasma, intravenous
MATE2-K = MATE2-K (Homo sapiens, UniProt Q86VL8); experiment: Inhibition of MATE2-K-mediated; format: cell-based; conditions: sum of unbound Cmax/IC50 of abemaciclib, M2 and M20
Sequence of MATE2-K (Q86VL8 1-566 isoform Q86VL8-3): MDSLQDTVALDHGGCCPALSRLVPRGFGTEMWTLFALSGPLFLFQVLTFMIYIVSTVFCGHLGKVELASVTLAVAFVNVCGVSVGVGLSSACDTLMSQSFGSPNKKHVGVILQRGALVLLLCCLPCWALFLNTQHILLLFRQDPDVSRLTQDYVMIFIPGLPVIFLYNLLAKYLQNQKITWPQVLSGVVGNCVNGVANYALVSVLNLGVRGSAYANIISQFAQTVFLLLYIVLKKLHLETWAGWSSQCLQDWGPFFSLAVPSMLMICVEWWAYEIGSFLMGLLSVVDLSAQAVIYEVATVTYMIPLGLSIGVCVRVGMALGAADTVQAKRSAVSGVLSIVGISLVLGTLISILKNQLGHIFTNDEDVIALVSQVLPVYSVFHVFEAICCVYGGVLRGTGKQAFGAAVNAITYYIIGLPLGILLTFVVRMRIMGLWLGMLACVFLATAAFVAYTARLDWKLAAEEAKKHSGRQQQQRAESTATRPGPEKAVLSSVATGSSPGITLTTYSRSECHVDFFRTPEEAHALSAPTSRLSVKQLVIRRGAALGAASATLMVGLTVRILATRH

OCT2 = molecular target: T2, OCT2 (Homo sapiens, UniProt O15244); experiment: Inhibition of OCT2-mediated; format: cell-based; conditions: sum of unbound Cmax/IC50 of abemaciclib, M2 and M20
T2 sequence (O15244 1-555): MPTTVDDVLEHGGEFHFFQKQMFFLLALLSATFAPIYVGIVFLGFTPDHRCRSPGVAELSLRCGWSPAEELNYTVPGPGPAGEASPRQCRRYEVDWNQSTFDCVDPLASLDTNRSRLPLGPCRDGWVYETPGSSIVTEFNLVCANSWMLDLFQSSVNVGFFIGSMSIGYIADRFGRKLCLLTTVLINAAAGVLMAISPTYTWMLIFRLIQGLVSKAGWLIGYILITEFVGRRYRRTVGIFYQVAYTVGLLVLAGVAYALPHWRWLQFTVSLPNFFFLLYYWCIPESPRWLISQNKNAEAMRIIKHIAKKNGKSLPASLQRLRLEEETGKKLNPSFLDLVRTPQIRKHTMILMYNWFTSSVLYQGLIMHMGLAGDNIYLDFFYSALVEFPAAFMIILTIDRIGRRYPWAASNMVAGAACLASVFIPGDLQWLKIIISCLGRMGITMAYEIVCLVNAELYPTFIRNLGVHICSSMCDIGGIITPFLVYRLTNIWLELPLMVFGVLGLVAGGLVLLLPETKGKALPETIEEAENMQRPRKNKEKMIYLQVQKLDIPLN

[3] = Clinical study: serum creatinine and estimated GFR after abemaciclib; format: in vivo, human
[4] = Clinical study: renal injury biomarkers; format: in vivo, human

Combined DDI index, MATE1 (MATE1) | Effect of coadministration on iohexol PK ([2]; 400 mg abemaciclib with iohexol) | Combined DDI index, MATE2-K (MATE2-K) | Combined DDI index, OCT2 (OCT2) | eGFR (CKD-EPI equation using SCr) ([3]; abemaciclib in combination with iohexol) [mL/minute/1.73 m^2] | eGFR (CKD-EPI equation using SCr) ([3]; abemaciclib in combination with metformin) [mL/minute/1.73 m^2] | eGFR calculated using serum cystatin-C ([3]; abemaciclib vs. placebo periods) | Mean increase in SCr concentration ([3]; between 10 and 12 hours postdose, 400 mg abemaciclib, healthy subjects) [µmol/L] | Reversible increase in SCr expected in patients ([3]; patients dosed with abemaciclib, suggested by the findings) | Time of peak SCr elevation ([3]; post abemaciclib dose) [h] | clearance [2] [mL/min] | clearance ([2]; 3235 mg) [mL/min] | Compound | Reversible increase in serum creatinine over baseline [1] | Trends in serum cystatin-C or NGAL indicative of renal injury ([4]; abemaciclib with either metformin or iohexol) | Creatinine-normalized urinary concentrations of NGAL and KIM-1 ([4]; following abemaciclib dosing)
0.13 | did not affect | 0.06 | 0.03 | 53.6 | 57.2 | did not change | 35.7 to 44.6 | 10–40% | 12 | – | – | CCN1CCN(Cc2ccc(Nc3ncc(F)c(-c4cc(F)c5nc(C)n(C(C)C)c5c4)n3)nc2)CC1 [Abemaciclib] | 15–40% | no trends | No notable change
– | – | – | – | – | – | – | – | – | – | 85.6 | 89 | CC(=O)N(CC(O)CO)c1c(I)c(C(=O)NCC(O)CO)c(I)c(C(=O)NCC(O)CO)c1I (stereo not drawn) [iohexol] | – | – | –
